# From article PMC7513592 (RSC Medicinal Chemistry, 2020)
# “Also recorded” adds a separate entry of the source. Where two headings read alike, the source gives them in different places.
# Key:
# [1] = test system: selected targets (off-targets predicted with PPB2); assay: In vitro polypharmacology for selected off-targets (Eurofins Cerep)
# Description: (§1) Fig. 8 In vitro polypharmacology for selected targets of 1 (blue diamonds) and 39 (red diamonds). Data are shown for each replicate (n = 2). The data for 1 were extracted from [ref. 17]. The experiments were conducted by Eurofins Cerep SA, France.
# (§2) We also characterized the off-targets predicted to be potentially problematic for both compounds using the web-based target prediction tool PPB2.[41]
# Water solubility = format: physicochemical; settings: effect of added hydroxyl group, versus 31 and 32
# hERG = target: T1, hERG (Homo sapiens, UniProt Q12809); assay: In vitro polypharmacology (Eurofins Cerep): hERG
# T1 construct: Eurofins Cerep SA, France (contract testing)
# Description: as §1, §2
# hTRPV1 = target: T2, hTRPV1 (Homo sapiens, UniProt Q8NER1); assay: TRPV1 FLIPR assay: capsaicin-activated Ca2+ influx in HEK-hTRPV1 cells; format: cell-based
# T2 construct: expressed in transfected cells; host or cells: HEK293T / HEK293, transient
# Description: hTRPV1 activity was measured using HEK293T cells transiently overexpressing TRPV1 as previously reported.6 Briefly, HEK293 cell were trypsinized and plated at 1.5 x10^4 cells/well onto Corning® 96-well black polystyrene clear bottom microplates (CLS3603 Sigma-Aldrich) coated with 100 μg/mL poly-D-lysine (P6407 Sigma-Aldrich) using 100 μL phenol-red free DMEM with 10% FBS and 2mM glutamine without antibiotics. Cells were incubated at 37 °C for 24 h. On the following day, transfection was performed using 200 ng of pcDNA 3.1 hTRPV1 and 0.6 μL Lipofectamine 2000 reagent/well. 24 h after the transfection, the medium was replaced with 90 µL of loading buffer (modified Krebs buffer containing 117 mM NaCl, 4.8 mM KCl, 1 mM MgCl2, 5 mM D-glucose, 10 mM HEPES, 1.8 mM CaCl2 and calcium-5 fluorescence dye (50 µL/mL loading buffer)). Cells were incubated in the loading buffer at 37 °C for 1 h in dark. Fluorescence Ca2+ measurements were carried out using FLIPR TETRA high-throughput, fluorescence microplate reader as described before. Stable baselines were established for 50 s before 10 µL of a 10X solution of compound 39 or the TRPV1-inhibitor capsazepine (CPZ) prepared in 1.8 mM CaCl2-containing Krebs buffer was robotically administered to the cells. Cells were incubated and fluorescence was monitored in the presence of compound for an additional 5 min before administration of the agonist in 1.8 mM CaCl2-containing Krebs buffer (final concentration of capsaicin in the assay plate was 100 nM). The activity of TRPV1 was measured by quantifying the area under the curve (AUC) of the fluorescence intensity, following administration of the agonist.
# The current HEK-hTRPV1 method employs a constant concentration of Ca2+ (1.8 mM) in the assay buffer during the whole experiment. […]
# of capsaicin (100 nM) the channel was activated and a high influx of Ca2+ was immediately recorded. The activation of the TRPV1 channel is supposed to occur through displacement of lipids in the transmembrane domain. […]
# Fig S2. […] Quantification […]
# [2] = test system: SKOV3, T47D, MCF-7, MDA-MB-231, HEK293 and HEK-hTRPV6 cells; assay: Antiproliferative activity, XTT, all six cell lines; format: cell-based, human; settings: 6 days, up to 100 µM
# From the text: Here, we compared the effects of 1 and 39 on SKOV3 and T47D, as well as on MCF-7 and MDA-MB-231 as two additional breast cancer cell lines with low levels of TRPV6.[13],[44] Previous studies have shown that RNA silencing (siRNA) of TRPV6 reduces T47D cell proliferation.[11],[13]
# Note that HEK-hTRPV6 was more susceptible to 1 toxicity than HEK293 wt cells, which might be related to the fact that HEK-hTRPV6 overexpressing cells proliferate faster than HEK293 wt cells in a Ca^2+-dependent manner (Table S3 ^†).[46] […] This highlights the need for future studies to uncover the precise role of TRPV6 in cancer progression.
# 12. Antiproliferative activity
# Unless specified cell culture reagents were obtained from Gibco, Life Technology, Switzerland. MCF -7 (human mammary adenocarcinoma), MDA-MB-231 (human mammary adenocarcinoma) were obtained from the ATCC cell bank. T47D (human mammary ductal carcinoma) cell line was obtained from NIH cell collection. These cells were grown in RPMI medium complemented with 10% FBS, 2mM L-Glutamine, 100 U/ml Penicillin and 100 μg/ml Streptomycin (Sigma) and 1% non-essential amino acids (Bioconcept, Switzerland). HEK293 (human embryonic kidney) and SKOV-3 (human ovary adenocarcinoma) cell lines were obtained from the ATCC cell bank. HEK-hTRPV6 and HEK293 and SKOV-3 were grown in DMEM medium supplemented with 10% FBS, 2mM L-Glutamine, 100 U/ml Penicillin and 100 μg/ml Streptomycin (Sigma) and 1% non-essential amino acids (Bioconcept, Switzerland).
# The XTT assay was used to evaluate cell proliferation. Cells were plated at a density of 5 x 10^3 cells/well in 96-well plates and were incubated at 37 °C for 24 h. On the following day, the medium was carefully […]
# Doxorubicin (10 µM) and DMSO (0.01 %) were used as positive and negative controls, respectively. All the treatments used the original cell medium (RPMI or DMEM), depending on the cell line. Cells were incubated for a total of 6 days at 37 °C with the medium (treatment and controls) being replaced by a freshly prepared solution every 48 h. Then, 25 μL of XTT (with 1.25 % of PMS) was added to each well and incubated at 37 °C for 2 h. Subsequently, the absorbance was read at 650 nm and subtracted from the […]
# The resulting subtracted absorbance for each compound concentration (At) was expressed as a percentage of viable cells relative to the negative control (Ab), and the percentage of viable cells was plotted and the inhibition curves obtained by non-linear regression using the built-in log(inhibitor) vs. response-variable slope function (GraphPad® Prism, v. 5.0, San Diego, CA, US).
# . Data shown are mean ± SEM (n =
# 3/concentration) of at least 3 independent experiments. ND = not determined, no inhibition of cell
# T2 sequence (Q8NER1 whole entry): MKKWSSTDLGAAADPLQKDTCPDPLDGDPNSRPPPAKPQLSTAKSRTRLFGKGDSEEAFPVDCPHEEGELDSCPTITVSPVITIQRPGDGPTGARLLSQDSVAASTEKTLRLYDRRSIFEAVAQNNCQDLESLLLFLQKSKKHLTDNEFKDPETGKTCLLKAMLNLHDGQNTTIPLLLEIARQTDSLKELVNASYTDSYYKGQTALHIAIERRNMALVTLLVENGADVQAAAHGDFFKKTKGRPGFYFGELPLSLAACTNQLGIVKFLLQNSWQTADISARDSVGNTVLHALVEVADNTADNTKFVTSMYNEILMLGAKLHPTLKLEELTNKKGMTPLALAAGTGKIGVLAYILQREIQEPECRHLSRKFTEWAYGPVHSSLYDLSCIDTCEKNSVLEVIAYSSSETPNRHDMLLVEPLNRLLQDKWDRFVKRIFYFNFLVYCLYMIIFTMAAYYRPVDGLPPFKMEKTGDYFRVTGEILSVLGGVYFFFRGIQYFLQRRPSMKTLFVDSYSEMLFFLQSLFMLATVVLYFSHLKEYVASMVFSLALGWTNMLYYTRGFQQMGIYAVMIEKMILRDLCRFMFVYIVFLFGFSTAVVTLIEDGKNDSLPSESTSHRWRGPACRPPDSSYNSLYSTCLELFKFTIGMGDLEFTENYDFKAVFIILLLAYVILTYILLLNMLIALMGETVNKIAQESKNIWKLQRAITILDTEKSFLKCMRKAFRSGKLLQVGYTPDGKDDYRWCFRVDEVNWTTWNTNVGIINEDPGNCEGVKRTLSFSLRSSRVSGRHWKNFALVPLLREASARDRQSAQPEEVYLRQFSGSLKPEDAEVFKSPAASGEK
# T1 sequence (Q12809 whole entry): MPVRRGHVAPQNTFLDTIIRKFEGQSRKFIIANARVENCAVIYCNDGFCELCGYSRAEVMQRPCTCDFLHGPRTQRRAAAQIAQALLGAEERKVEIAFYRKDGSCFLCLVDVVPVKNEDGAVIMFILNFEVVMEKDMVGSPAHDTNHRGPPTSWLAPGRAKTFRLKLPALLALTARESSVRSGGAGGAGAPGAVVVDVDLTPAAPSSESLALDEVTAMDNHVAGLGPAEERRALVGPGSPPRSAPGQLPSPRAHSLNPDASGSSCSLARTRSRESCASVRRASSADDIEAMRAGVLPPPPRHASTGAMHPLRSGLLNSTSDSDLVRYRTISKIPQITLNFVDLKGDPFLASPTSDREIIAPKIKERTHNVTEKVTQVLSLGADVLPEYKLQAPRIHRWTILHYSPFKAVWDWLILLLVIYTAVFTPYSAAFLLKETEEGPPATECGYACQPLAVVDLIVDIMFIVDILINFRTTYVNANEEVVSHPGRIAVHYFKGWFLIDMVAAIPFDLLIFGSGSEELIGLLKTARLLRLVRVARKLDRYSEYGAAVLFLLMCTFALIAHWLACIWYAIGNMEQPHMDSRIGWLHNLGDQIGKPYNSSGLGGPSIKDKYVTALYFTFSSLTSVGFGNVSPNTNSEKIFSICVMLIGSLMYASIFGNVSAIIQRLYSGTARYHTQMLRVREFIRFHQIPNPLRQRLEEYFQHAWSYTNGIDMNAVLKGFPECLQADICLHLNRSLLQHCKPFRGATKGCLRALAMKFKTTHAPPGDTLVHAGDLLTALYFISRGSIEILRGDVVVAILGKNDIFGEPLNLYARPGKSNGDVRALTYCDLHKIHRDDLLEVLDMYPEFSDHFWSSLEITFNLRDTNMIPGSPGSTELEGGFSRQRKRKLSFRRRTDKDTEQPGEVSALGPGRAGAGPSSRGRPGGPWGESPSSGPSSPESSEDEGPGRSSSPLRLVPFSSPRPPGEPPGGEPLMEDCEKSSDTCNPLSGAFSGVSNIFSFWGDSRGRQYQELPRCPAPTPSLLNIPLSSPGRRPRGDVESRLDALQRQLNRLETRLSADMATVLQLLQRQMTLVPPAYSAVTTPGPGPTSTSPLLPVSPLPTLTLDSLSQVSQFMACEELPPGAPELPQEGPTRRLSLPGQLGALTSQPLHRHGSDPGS
compound,measurement,setting,value
O=c1ccc(CN2CCN([C@H]3CC[C@@](O)(c4cccc(C(F)(F)F)c4)CC3)CC2)c[nH]1 [compound 39],off-target effects,[1],did not show any significant off-target effects
same,off-target effects,[1]; listed as 3OG,very low off-target effects
same,water solubility,Water solubility,increased water solubility
same,hERG activity,hERG,completely abolished; also recorded: suppressed hERG inhibition
same,inhibition at 10 µM,"hTRPV1; 100 nM capsaicin, read-out: inhibition of Ca2+ influx through capsaicin-activated hTRPV1",2%
same,activation or inhibition of TRPV1,hTRPV1; 10 µM,lack of activity on TRPV1; also recorded: did not activate nor inhibit
same,effect on cell proliferation / cellular toxicity,[2],did not observe any significant decrease in proliferation; also recorded: does not display any measurable cellular toxicity
same,effect on cell proliferation / cellular toxicity,[2]; listed as 3OG,does not exhibit any non-specific toxicity effects
